This note sets out measurements from patent US11149014B2, “Method for treating pain or associated condition or symptom” (priority 2014, dated 2021).

Data set [1] in a line: Weight loss Study 1: body weight of DBA/1 male mice injected Type II collagen for CIA. The note with it: 5 mg/Kg intra-peritoneal for 16 days from day 18; 34 days. The data set is classed as in vivo. The procedure: DBA/1 male mice (6 weeks old, 20 gram, 15 mice/group) were injected Type II collagen for CIA. On day 18, the mice were injected (intra-peritoneal) with the following doses, for 16 days:
Vehicle: ethanol: chremophor: saline (1:1:18)
Methrotrexate (MTX): 0.5 mg/Kg.
In addition, a control group (wherein no dose was given) was monitored for comparison. The changes in body weight (in grams) was measured daily for a period of 34 days from injection. FIG. 4 (days 18-34) and FIG. 5 (overall change from day 1 to 34), show the changes in body weight of mice over a period of 34 days from injection.

The nature of data set [2]: Weight loss Study 3: weight gain and food consumption of C57BL/6 mice. The data set is classed as in vivo. The note with it: for food consumption: after 1-3 weeks; for reduction in weight gain compared to the control group: three weeks. The procedure: C57BL/6 mice (8-9 weeks old, 16 gram, 5 mice/group) were injected (intra-peritoneal) with two doses of HU-436 (5 mg/Kg and 10 mg/Kg). The change in weight of mice was measured weekly for three weeks (FIGS. 8 and 9) from injection. In addition, a control group (wherein no dose was given) was monitored for comparison.

Data set [3] in a line: Weight loss Study 2: weight change of normal Sabra mice. In kind it is in vivo. The note with it: 5 mg/Kg intra-peritoneal; 15 and 24 days. The procedure:
Normal Sabra (mice 9-10 weeks old, about 32 gram, 7 mice/group) were injected (intra-peritoneal) with two doses of HU-436 (5 mg/Kg and 10 mg/Kg). The change in weight of mice was measured daily for 15 (FIG. 6) and 24 days (FIG. 7) from injection. In addition, a control group (wherein no dose was given) was monitored for comparison.

A further data set relates to C57BL. As to the kind of experiment: Preliminary toxicological studies in C57BL. The data set is classed as in vivo, mice.
Another data set concerns TNF. The data set can be described thus: TNF level in serum of C57BL mice injected with LPS. The data set is classed as in vivo. The note with it: 30 mg/Kg injected together with LPS; 90 min after injection. The procedure:
Three doses of HU-436 (10 mg/Kg, 20 mg/Kg and 30 mg/Kg) were each injected to three C57BL mice together with LPS. Ninety min fallowing the injections, the mice were bled and the TNF levels in the serum were determined.

A further data set concerns TNFα. The data set can be described thus: TNFα levels in sera of zymosan-injected Sabra mice (Elisa). The note with it: 24 hrs after application. The data set is classed as in vivo. On the procedure:
(§1) Activity of HU-436 given orally were assayed in Sabra mice. Zymosan injected to mice left hind paw, induced inflammation, TNF (tumor necrosis factor) in the serum as well as pain. During 24 h, the inflammatory paw swelling response was assayed by caliper, whereas the pain in the hind paw, was determined by Von Frey monofiber instrument.
(§2) Sabra female, mice 6-7 weeks old, were employed. Zymosan 0.6 mgr in 40 micro-liters was injected into the left hind paw. Immediately thereafter 20 30, 50 or 100 mg/kg HU436 dissolved in olive oil, in 200 μl—was given orally. Two, six and twenty-four hours thereafter, the injected left hind paw of the mice (total 5-8 mice/treatment), were examined both for swelling (Inflammation) and pain (Von Frey). The levels of TNFα in the sera of Sabra mice were determined by Elisa, 24 hrs after HU-436 application.

In data set [4] the test system is Sabra mice. The data set can be described thus: Zymosan-induced hind paw swelling (inflammation), caliper. In kind it is in vivo.
Data set [5] relates to Sabra mice. As to the kind of experiment: Zymosan-induced hind paw pain, Von Frey monofiber instrument. In kind it is in vivo. The note with it: for pain reduction: 2, 6, 24 h. The procedure:
as §1, §2
Pain, was assayed by employing Von-Frey monofiber instrument. The higher the log value measured, the more force (g) one has to apply to cause pain=higher analgesia is being expressed=less pain.

The subject of a further data set is RAW 264.7 macrophages. The data set can be described thus: Nitric oxide (NO) production by LPS-activated RAW 264.7 macrophages (Griess). In kind it is cell-based, mice. The note with it: Mus musculus, RAW264.7; 60 μg/ml; LPS 1 μg/mL, 24 h. The procedure: (§3) Raw 264.7 cells, a monocytic-macrophage cell line derived from BALB/c mice, were obtained from American Type Culture collection (Rockville, Md.). The cells were cultured in Dulbecco's modified Eagle medium (DMEM) supplemented with 5% fetal calf serum (FCS) and sodium pyrovate, glutamine, and antibiotics. For activation, the cells were incubated with LPS (E. coli 1 μg/mL for 24 h, Sigma, Israel). These cells were applied for ROI and Nitric Oxide (NO) generation in-vitro.
RAW 264.7 macrophages were treated with various doses (1-60 μg/ml) of HU-436 followed the addition of 1 μg/mL of lipopolysaccharide (LPS, E. coli, Sigma) for activation. The macrophages were then cultivated in a humid atmosphere with 5% CO2 for 24 h. NO generation was determined by measuring the nitrite accumulated in the supernatants (100 μL) of the HU-436-treated macrophages as follows: An equal volume (100 μL) of Griess reagent (1% sulfanilamide, 0.1% naphthalene diamine HCl, 2% H3PO4) was added to each supernatant. Following 10 min of incubation at room temperature, the color production was measured at 550 nm with an ELISA reader. The concentration of nitrite was calculated according to a standard curve. The results are presented in FIG. 1 wherein inhibition of more than 50% was found fallowing incubation of the cells with 60 μg/ml HU-436.
In general terms: The Griess reaction detects nitrite, a stable product of nitric oxide.

Another data set concerns Raw 264.7 cells. As to the kind of experiment: Reactive oxygen intermediate (ROI) production by Raw 264.7 macrophages (luminol/zymosan chemiluminescence). In kind it is cell-based, mice. The note with it: Mus musculus, RAW264.7, read-out: inhibition of ROI generation. On the procedure: as §3
Raw 264.7 cells were removed using a scrapper, washed, and re-suspended in Hanks balanced salt solution (without phenol red). For measurement of chemiluminescence, two luminometer tubes were each loaded with: 0.5 mL of cell suspension (5×10^5 cells), HU-436 (two separate doses in each tube of 40 μg/ml and 60 μg/ml), 10 μL luminol (Sigma) and 30 μL of zymosan (Sigma). The chemiluminescence in each tube was measured immediately thereafter by a luminometer (Biolumate LB 95, Berhold, Wilbad, Germany)

SMILES strings stand for the structures. Counter-ions that a name gives are not always drawn.

Turning to `C=C(C)C1CCC(C)=CC1c1c(OC)cc(CCCCC)cc1OC(=O)CCN1CCOCC1` [HU-436, Maleate Salt of 3-methoxy-2-((6R)-3-methyl-6-(prop-l-en-2-yl)cyclohex-2-enyl)-5-pentylphenyl 3-morpholinopropanoate], in [1], the “reduction of body weight (weight gain of control group = 100% gain)” value is reported as “up to 61%”. The food consumption result in data set [2] (5 mg/Kg intra-peritoneal) and in data set [2] (10 mg/Kg intra-peritoneal) was “reduction in food consumption” each time. Besides, the “reduction in weight gain compared to the control group” value in [2] (5 mg/Kg intra-peritoneal) and in data set [2] (10 mg/Kg intra-peritoneal) was “about 50%” each time. In addition, in data set [3], the “changes in weight gain” value is on record as “significantly decreased the changes in weight gain”. The toxicity entry in the data set on C57BL (50 mg/Kg) and in the data set on C57BL (100 mg/Kg) was “non-toxic” each time. The “inhibition in TNF level in the serum” value with TNF is on record as 46%. In addition, the “reduction of TNFα levels in the sera” value in the data set on TNFα is given as “up to 20%”. In addition, the “inflammatory response (swelling) compared to controls” value in the data set with Sabra mice [4] (20 mg/kg ip injection) is “reduction in inflammatory response (swelling) was observed compared to controls”. The “inflammation compared to the controls” value in the data set with Sabra mice [4] (30 mg/kg given orally) and with Sabra mice [4] (50 mg/kg given orally) was “reduced inflammation compared to the controls” each time. In the data set on Sabra mice [4] (conclusion), the anti-inflammation properties result is “moderate anti-inflammation properties”. For the same compound, the pain reduction result in the data set with Sabra mice [5] (20 mg/kg given orally), in the data set on Sabra mice [5] (30 mg/kg given orally), in the data set with Sabra mice [5] (50 mg/kg given orally) and in the data set with Sabra mice [5] (100 mg/kg given orally) was “marked pain reduction” in each case. For the same compound, in the data set on Sabra mice [5] (50 mg/kg, after 24 hr), the “pain reduction compared to Tremadol (5 mg/kg intra-peritoneally)” value is “more potent after 24 hr than Tremadol”. Further, the “pain reduction compared to Aspirin” value in the data set on Sabra mice [5] (HU-436 30 or 50 mg/kg vs Aspirin 50 (and 100) mg/kg, 24 hr) is reported as “the most potent in reducing pain for 24 hr”. In addition, the “long lasting pain reduction compared to Cannabidiol, Aspirin” value in the data set with Sabra mice [5] (conclusion) is “more effective than Cannabidiol, Aspirin in reducing long lasting pain”. For the same compound, the results for the inhibition at 60 µg/mL in the data set with RAW 264.7 macrophages and with Raw 264.7 cells (60 μg/ml) were over 50% and 28%, respectively. In addition, in the data set with Raw 264.7 cells (40 μg/ml), the inhibition at 40 µg/mL is 20%.
